This assay has as its system Plasmodium berghei. In words: Luciferase/luciferin-expressing antifolate-resistant parasites were used to infect a culture of HepG2 cells that were pre-incubated with compounds. Infected hepatocytes emit light due to the luciferase reaction. Assay results are presented as the percent inhibition of light emission compared to control. […]. The format is functional. The following applies: sporozoite; for IC90: read-out: LUCIFERASE INFECTION ASSAY - IC90.

Setting [1] is: read-out: LUCIFERASE INFECTION ASSAY - IC50.

The structures appear in SMILES notation.

This passage reports IC50 and IC90 results from ChEMBL document CHEMBL4483862, “Open-source discovery of chemical leads for next-generation chemoprotective antimalarials” (2018).

As usually defined, the IC50 is the midpoint of a concentration-inhibition curve. Usually IC90 stands for the concentration at which the effect reaches the 90% level.

For the compound `Cc1ccc(N2C(=N)C(=S)N(c3ccc(Cl)c(Cl)c3)C2=O)cc1`, the IC90 was greater than 9.06 µM. The IC50 under setting [1] was greater than 9.06 µM.
Take `Cc1cccc(OCc2nnnn2-c2ccc(Br)cc2)c1`: the IC90 was greater than 9.56 µM. Also, under setting [1], the IC50 was greater than 9.56 µM.
Regarding `CC(C)c1ccc(NC(=O)CCCc2ccccc2)cc1`, the IC90 was greater than 11.7 µM. Moreover, under setting [1], the IC50 was greater than 11.7 µM.
As for `O=S(=O)(Nc1cccc(C(F)(F)F)c1)c1ccc(S(=O)(=O)c2ncc(C(F)(F)F)cc2Cl)s1`, the IC90 is greater than 5.99 µM. The IC50 under setting [1] is greater than 5.99 µM.
On to `Cc1cc(C)cc(C(O)c2nc(-c3cccc4ccccc34)c[nH]2)c1` (stereo not drawn), for which the IC90 is greater than 10 µM. Moreover, the IC50 (PBLUC_HILL_SLOPE 13.8, PBLUC_R_SQUARED 0.489, read-out: LUCIFERASE INFECTION ASSAY - IC50) stood at 9.47 µM.
Take `NC(Cc1ccc(Cl)cc1)c1csc(NC(=O)Nc2ccccc2Cc2ccccc2)n1` (stereo not drawn): the concentration for an effect of 90% (IC90) is greater than 7.13 µM. Besides, the concentration for half-maximal inhibition (IC50) (PBLUC_HILL_SLOPE 11.7, PBLUC_R_SQUARED 0.713, read-out: LUCIFERASE INFECTION ASSAY - IC50) was determined as 6.46 µM.
For the compound `O=C1C(=O)N(CN2CCc3sccc3C2c2ccccc2)c2ccc(F)cc21` (stereo not drawn), the IC90 worked out at 2.51 µM. The IC50 (HEPG2TOX_HILL_SLOPE 2.62, HEPG2TOX_R_SQUARED 0.103, PBLUC_HILL_SLOPE 2.21, PBLUC_R_SQUARED 0.632, read-out: LUCIFERASE INFECTION ASSAY - IC50) was 0.929 µM.
As for `CCc1ccc(C(NCC(=O)NC(=O)NC)C(C)C)cc1` (stereo not drawn), the IC90 is greater than 10 µM. For the same compound, under setting [1], the IC50 is greater than 10 µM.
For `COc1ccc(Cl)cc1N1C(=O)/C(=C\c2sccc2C)N=C1SCc1cc(=O)n2ccsc2n1`, the IC90 was greater than 10 µM. Moreover, for the setting “FFLUC_HILL_SLOPE 14.8, FFLUC_R_SQUARED 0.288, PBLUC_HILL_SLOPE 0.636, PBLUC_R_SQUARED 0.525, read-out: LUCIFERASE INFECTION ASSAY - IC50”, the IC50 turned out to be 2.55 µM.
Consider `N#C/C(=N\Nc1ccccc1Cl)S(=O)(=O)c1ccc(Cl)cc1`, for which the IC90 was 4.8 µM. For the same compound, the IC50 (HEPG2TOX_HILL_SLOPE 2.02, HEPG2TOX_R_SQUARED 0.971, PBLUC_HILL_SLOPE 7.31, PBLUC_R_SQUARED 0.396, read-out: LUCIFERASE INFECTION ASSAY - IC50) came to 3.55 µM.
Regarding `O=C(Nc1nc2cc3c(cc2s1)OCCO3)c1cccc2c[nH]nc12`, the IC90 amounted to 0.404 µM. The IC50 (PBLUC_HILL_SLOPE 1.1, PBLUC_R_SQUARED 0.666, read-out: LUCIFERASE INFECTION ASSAY - IC50) was found to be 0.0549 µM.
`CCOc1cccc(C2Nc3ccccc3C(=O)N2C2CC2)c1O` (stereo not drawn): the IC90 stood at 9.55 µM. Under “HEPG2TOX_HILL_SLOPE 0.644, HEPG2TOX_R_SQUARED 0.857, PBLUC_HILL_SLOPE 2.2, PBLUC_R_SQUARED 0.323, read-out: LUCIFERASE INFECTION ASSAY - IC50”, the IC50 is 3.51 µM.
Turning to `O=S(=O)(c1ccc(Cl)s1)N1CCN(c2ncnc3ccccc23)CC1`, the IC90 was greater than 10 µM. In addition, under “HEPG2TOX_HILL_SLOPE 2.41, HEPG2TOX_R_SQUARED 0.894, PBLUC_HILL_SLOPE 2.42, PBLUC_R_SQUARED 0.407, read-out: LUCIFERASE INFECTION ASSAY - IC50”, the IC50 stood at 4.98 µM.
As for `NS(=O)(=O)c1ccc(CNc2ccc3ncc(-c4ccc(Cl)cc4)n3n2)cc1`, the IC90 worked out at 1.19 µM. The IC50 (HEPG2TOX_HILL_SLOPE 1.64, HEPG2TOX_R_SQUARED 0.894, PBLUC_HILL_SLOPE 9.33, PBLUC_R_SQUARED 0.776, read-out: LUCIFERASE INFECTION ASSAY - IC50) was found to be 0.942 µM.
As for `CC(=N)C(C#N)c1csc(Nc2cc(C)cc(C)c2)n1` (stereo not drawn), the IC90 was greater than 10 µM. Moreover, for the setting “FFLUC_HILL_SLOPE 2.53, FFLUC_R_SQUARED 0.471, read-out: LUCIFERASE INFECTION ASSAY - IC50”, the IC50 was greater than 10 µM.
With `CCn1c(NC(=O)c2oc3ccccc3c2COC)nc2ccccc21`, the IC90 was determined as 4.5 µM. In addition, the IC50 (PBLUC_HILL_SLOPE 11.7, PBLUC_R_SQUARED 0.368, read-out: LUCIFERASE INFECTION ASSAY - IC50) came to 3.72 µM.
As for `Cc1ccccc1-c1ccc(CN2CCC3(CC2)C(=O)N(C)C(=O)N3CC(C)C)cc1`, the IC90 turned out to be 3.99 µM. For the same compound, under “HEPG2TOX_HILL_SLOPE 1.94, HEPG2TOX_R_SQUARED 0.943, PBLUC_HILL_SLOPE 7.56, PBLUC_R_SQUARED 0.512, read-out: LUCIFERASE INFECTION ASSAY - IC50”, the IC50 was determined as 2.99 µM.
For the compound `CC(=O)c1cccc(NC(=O)Nc2ccc3nc(Cc4ccccc4)nn3c2)c1`, the IC90 is 4.13 µM. In addition, the IC50 (HEPG2TOX_HILL_SLOPE 12.7, HEPG2TOX_R_SQUARED 0.848, PBLUC_HILL_SLOPE 19.5, PBLUC_R_SQUARED 0.366, read-out: LUCIFERASE INFECTION ASSAY - IC50) is 3.69 µM.
For `Cc1ccc(S(=O)(=O)Nc2ccc(Oc3ccc(Cl)cc3)cc2)cc1`, the IC90 was greater than 8.83 µM. For the same compound, where the note is “FFLUC_HILL_SLOPE 2.59, FFLUC_R_SQUARED 0.0226, PBLUC_HILL_SLOPE 17.9, PBLUC_R_SQUARED 0.275, read-out: LUCIFERASE INFECTION ASSAY - IC50”, the IC50 came to 8.28 µM.
With `Cc1cc(OCC(=O)N(C)Cc2nc3ccsc3c(=O)[nH]2)ccc1C(C)C`, the IC90 is greater than 10 µM. Under setting [1], the 50% inhibitory concentration (IC50) is greater than 10 µM.
As for `Cc1c(C(=O)NCc2ccc(Cl)c(Cl)c2)sc(=O)n1Cc1ccc(S(=O)(=O)N(C)C)cc1`, the IC90 is greater than 6.41 µM. Also, under “PBLUC_HILL_SLOPE 9.17, PBLUC_R_SQUARED 0.333, read-out: LUCIFERASE INFECTION ASSAY - IC50”, the IC50 is 5.25 µM.
Take `Cc1oc(=S)n(CN2CCN(S(=O)(=O)c3ccc4ccccc4c3)CC2)c1C`: the IC90 is greater than 10 µM. The IC50 under setting [1] was greater than 10 µM.
Regarding `c1ccc2cc(-c3csc(Nc4cccc5ccccc45)n3)ccc2c1`, the IC90 is greater than 9.36 µM. Moreover, the IC50 under setting [1] was greater than 9.36 µM.
For the compound `C/C(=N\NC(=O)c1ccc(N/N=C(\C)c2ccccc2Br)cc1)c1ccccc1Br`, the IC90 is greater than 10 µM. Also, the IC50 under setting [1] is greater than 10 µM.
`FC(F)(F)Oc1cccc(-c2nc3ccnc(NCCc4ccccn4)c3[nH]2)c1`: the IC90 was 7.15 µM. Also, where the note is “HEPG2TOX_HILL_SLOPE 1.56, HEPG2TOX_R_SQUARED 0.653, PBLUC_HILL_SLOPE 2.89, PBLUC_R_SQUARED 0.498, read-out: LUCIFERASE INFECTION ASSAY - IC50”, the IC50 came to 3.34 µM.
On to `O=C(CN1c2cccc3cccc(c23)S1(=O)=O)N1CCN(C(=O)c2ccco2)CC1`, for which the IC90 is greater than 10 µM. Under setting [1], the IC50 is greater than 10 µM.
For `Cn1c(SCC(=O)Nc2cccc(C(=O)O)c2)nnc1-c1cnccn1`, the 90% effect concentration (IC90) is greater than 8.91 µM. Under setting [1], the IC50 is greater than 8.91 µM.
With `COc1ccccc1NS(=O)(=O)c1ccc2c(c1)N=Cc1c(F)cccc1O2`, the IC90 was greater than 10 µM. Besides, the IC50 (FFLUC_HILL_SLOPE 2, FFLUC_R_SQUARED 0.88, HEPG2TOX_HILL_SLOPE 51.5, HEPG2TOX_R_SQUARED 0.639, PBLUC_HILL_SLOPE 12.2, PBLUC_R_SQUARED 0.289, read-out: LUCIFERASE INFECTION ASSAY - IC50) stood at 9.2 µM.
As for `Cc1cc(C(=O)Nc2ccc(OCc3ncc(C(F)(F)F)cc3Cl)cc2)no1`, the IC90 was 1.33 µM. Further, the IC50 (PBLUC_HILL_SLOPE 1.94, PBLUC_R_SQUARED 0.889, read-out: LUCIFERASE INFECTION ASSAY - IC50) was found to be 0.429 µM.
Consider `O=C(Nc1ccc(Oc2ccnc3cc(Cl)ccc23)cc1)c1ccco1`, for which the IC90 amounted to 2.99 µM. In addition, the IC50 (PBLUC_HILL_SLOPE 3.16, PBLUC_R_SQUARED 0.555, read-out: LUCIFERASE INFECTION ASSAY - IC50) amounted to 1.49 µM.
Regarding `COc1ccc(C(CNC(=O)Cc2coc3c(C)c(C)ccc23)N(C)C)cc1` (stereo not drawn), the IC90 worked out at 3.36 µM. The IC50 (PBLUC_HILL_SLOPE 2.38, PBLUC_R_SQUARED 0.44, read-out: LUCIFERASE INFECTION ASSAY - IC50) came to 1.33 µM.
As for `O=C(CSc1nnc(Nc2ccc(SC(F)F)cc2)s1)c1cccs1`, the IC90 was greater than 10 µM. Further, the IC50 (FFLUC_HILL_SLOPE 26.5, FFLUC_R_SQUARED 0.442, read-out: LUCIFERASE INFECTION ASSAY - IC50) was greater than 10 µM.
With `Cc1c(Cl)cccc1N=C(SCC(=O)N1CCCCCC1)C(C#N)c1nc2ccccc2s1` (stereo not drawn), the IC90 is greater than 10 µM. The IC50 (HEPG2TOX_HILL_SLOPE 5.36, HEPG2TOX_R_SQUARED 0.816, PBLUC_HILL_SLOPE 12.3, PBLUC_R_SQUARED 0.271, read-out: LUCIFERASE INFECTION ASSAY - IC50) is 8.92 µM.
On to `c1ccc2c(NCc3ccc(N4CCCC4)nc3)ncnc2c1`, for which the IC90 was determined as 3.16 µM. For the same compound, under “HEPG2TOX_HILL_SLOPE 0.683, HEPG2TOX_R_SQUARED 0.958, PBLUC_HILL_SLOPE 1.41, PBLUC_R_SQUARED 0.701, read-out: LUCIFERASE INFECTION ASSAY - IC50”, the IC50 was found to be 0.668 µM.
With `Cc1ccc(-c2nnc(SCC(=O)N3N=C(c4ccc5ccccc5c4)CC3c3ccccc3)[nH]2)cc1` (stereo not drawn), the IC90 is greater than 10 µM. Besides, the IC50 under setting [1] is greater than 10 µM.
For the compound `Cc1ccc(COC(=O)c2cccc3c(=O)c(C)c(-c4ccccc4)oc23)cc1`, the 90% effect concentration (IC90) is greater than 10 µM. In addition, the IC50 under setting [1] is greater than 10 µM.
Consider `Cc1ccc(N(Cc2ccccc2)S(=O)(=O)c2ccc(S(C)(=O)=O)cc2)cc1`, for which the IC90 was greater than 10 µM. Besides, the IC50 (PBLUC_HILL_SLOPE 2.12, PBLUC_R_SQUARED 0.413, read-out: LUCIFERASE INFECTION ASSAY - IC50) was 5.72 µM.
In the case of `CC(=O)Nc1cccc(-c2ccc3ncc(-c4ccc(CO)cc4)n3n2)c1`, the IC90 is 8.06 µM. Moreover, the IC50 under setting [1] worked out at 2.73 µM.
On to `Cc1cc(N(C)Cc2ccccc2Br)nc(N)n1`, for which the IC90 was determined as 2.29 µM. Moreover, for the setting “HEPG2TOX_HILL_SLOPE 1.99, HEPG2TOX_R_SQUARED 0.929, PBLUC_HILL_SLOPE 3.52, PBLUC_R_SQUARED 0.797, read-out: LUCIFERASE INFECTION ASSAY - IC50”, the IC50 is 1.23 µM.
